Laboratory results taken from patent publication US5811439A, “Thiazolidinedione derivatives, method for preparing the derivatives and pharmaceutical compositions containing same” (Senga Pharmaceutical Laboratory Inc., priority 1995, dated 1998).

These compounds were tested on 3T3-L1 cells (assay: Glucose-uptake test (2-DOG uptake) in 3T3-L1 cells). Settings: 24 hours, cpm divided by amount of proteins.
Type: cell-based
Protocol: Glucose-uptake tests as a means for screening compounds for the effect of reducing the blood sugar level were carried out according to the following procedures. 1) Cell: The following cells were used. 3T3-L1 (purchased from Dainippon Pharmaceutical Co. Ltd.) 2) Reagents: The following reagents were used. DMEM (GIBCO); FBS (GIBCO); […] DMSO: dimethylsulfoxide (Wako Pure Chemical Co., Ltd.); ACS2 (Amersham); urea (Wako Pure Chemical Co., Ltd.); protein-determining kit (Bio Rad Code No.). 3) Instrument: The following instrument was used in the test. 24-well plate (Falcon) 3T3-L1 cells were dispersed in a 10% FBS-containing DME medium in a cell concentration of 10000 cells/ml, the resulting cell suspension was dispensed into a 24-well plate in an amount of 1 ml per well and the cells were cultivated in a 5% CO2 -incubator at 37° C. for 5 days. After soaking up the medium in the wells, the plate was washed once with PBS in an amount of 2 ml/well. […] The cells were cultivated in a sample compound-containing medium at 37° C. for 24 hours in a 5%-CO2 -incubator. After the cultivation, the medium was soaked up and the plate was washed three times with 2 ml/well each of PBS. […] After washing with 2 ml/well of PBS, the PBS was sufficiently soaked up. […] The lysate was also inspected for the amount of proteins using 0.2 ml out of the rest of the lysate, according to the microassay method using a protein-determining kit.

Question: Which “2-DOG Uptake (%) at a concentration of 50 μg/ml” value does the source give for `O=C1NC(=O)C(Cc2cccc3c2ccn3Cc2ccccn2)S1` (stereo not shown) [Example 133, 5-[1-(2-picolyl)indol-4-yl]methyl-2,4-thiazolidinedione] here?
Answer: The value was 240%.

Same assay, conditions: Mus musculus, 3T3-L1, 24 h, 50 μg/ml, cpm divided by amount of proteins, read-out: 2-DOG Uptake (%) at a concentration of 50 μg/ml

Question: With `O=C1NC(=O)C(Cc2cccc3c2ccn3Cc2ccc(C(F)(F)F)cc2)S1` (stereo not shown) [Example 80, 5-[1-(4-trifluoromethylbenzyl)indol-4-yl]methyl-2,4-thiazolidinedione] as the compound, how does the activity at 50 µg/mL read?
Answer: Its activity at 50 µg/mL is 210%.

Question: How did the activity at 50 µg/mL turn out when `O=C1NC(=O)C(Cc2cccc3c2ccn3Cc2ccc(C(F)(F)F)cc2C(F)(F)F)S1` (stereo not shown) [Example 83, 5-{1-[2,4-bis(trifluoromethyl)-benzyl]indol-4-yl}methyl-2,4-thiazolidine-dione] was run?
Answer: The activity at 50 µg/mL was 199%.

Question: How did the activity at 50 µg/mL turn out when `COc1ccccc1Cn1ccc2c(CC3SC(=O)NC3=O)cccc21` (stereo not shown) [Example 86, 5-[1-(2-methoxybenzyl)indol-4-yl]methyl-2,4-thiazolidinedione] was run?
Answer: Its activity at 50 µg/mL is 161%.

Question: `COc1cccc(Cn2ccc3c(CC4SC(=O)NC4=O)cccc32)c1` (stereo not shown) [Example 89, 5-[1-(3-methoxybenzyl)indol-4-yl]methyl-2,4-thiazolidinedione] was tested. Which activity at 50 µg/mL did it give?
Answer: Its activity at 50 µg/mL is 185%.

Question: With `COc1ccc(Cn2ccc3c(CC4SC(=O)NC4=O)cccc32)cc1OC` (stereo not shown) [Example 92, 5-[1-(3,4-dimethoxybenzyl)indol-4-yl]methyl-2,4-thiazolidinedione] as the compound, how does the activity at 50 µg/mL read?
Answer: The activity at 50 µg/mL was 190%.

Question: For `COc1ccc(OC)c(Cn2ccc3c(CC4SC(=O)NC4=O)cccc32)c1` (stereo not shown) [Example 98, 5-[1-(2,5-dimethoxybenzyl)indol-4-yl]methyl-2,4-thiazolidinedione], which activity at 50 µg/mL is on record?
Answer: Its activity at 50 µg/mL is 180%.

Question: With `N#Cc1cccc(Cn2ccc3c(CC4SC(=O)NC4=O)cccc32)c1` (stereo not shown) [Example 101, 5-[1-(3-cyanobenzyl)indol-4-yl]methyl-2,4-thiazolidinedione] as the compound, how does the activity at 50 µg/mL read?
Answer: Its activity at 50 µg/mL is 240%.

Question: How did the activity at 50 µg/mL turn out when `N#Cc1ccc(Cn2ccc3c(CC4SC(=O)NC4=O)cccc32)cc1` (stereo not shown) [Example 104, 5-[1-(4-cyanobenzyl)indol-4-yl]methyl-2,4-thiazolidinedione] was run?
Answer: The activity at 50 µg/mL was 290%.

Question: Which activity at 50 µg/mL does the source give for `O=C1NC(=O)C(Cc2cccc3c2ccn3Cc2ccc3c(c2)OCO3)S1` (stereo not shown) [Example 112, 5-(1-piperonylindole-4-yl)methyl-2,4-thiazolidinedione] here?
Answer: The activity at 50 µg/mL was 155%.

Question: With `Cc1cccc(Cn2ccc3c(CC4SC(=O)NC4=O)cccc32)c1` (stereo not shown) [Example 115, 5-[1-(3-methylbenzyl)indol-4-yl]methyl-2,4-thiazolidinedione] as the compound, how does the activity at 50 µg/mL read?
Answer: Its activity at 50 µg/mL is 162%.

Question: Which activity at 50 µg/mL does the source give for `O=C1NC(=O)C(Cc2cccc3c2ccn3CCc2ccccc2)S1` (stereo not shown) [Example 121, 5-(1-phenethylindol-4-yl)methyl-2,4-thiazolidinedione] here?
Answer: The activity at 50 µg/mL was 218%.

Question: `O=C1NC(=O)C(Cc2cccc3c2ccn3CCc2cccs2)S1` (stereo not shown) [Example 139, 5-{1-[2-(thien-2-yl)ethyl]indol-4-yl}methyl-2,4-thiazolidinedione] was tested. Which activity at 50 µg/mL did it give?
Answer: The activity at 50 µg/mL was 153%.

Question: With `Cc1nc(Cn2ccc3c(CC4SC(=O)NC4=O)cccc32)cs1` (stereo not shown) [Example 142, 5-{1-[(2-methylthiazol-4-yl)methyl]indol-4-yl}methyl-2,4-thiazolidinedione] as the compound, how does the activity at 50 µg/mL read?
Answer: The activity at 50 µg/mL was 160%.

Question: With `O=C1NC(=O)C(=Cc2cccc3c2ccn3Cc2ccc3ccccc3n2)S1` [Example 147, 5-{1-[(quinol-2-yl)methyl]indol-4-yl}methylene-2,4-thiazolidinedione] as the compound, how does the activity at 50 µg/mL read?
Answer: Its activity at 50 µg/mL is 156%.

Question: How did the activity at 50 µg/mL turn out when `O=C1NC(=O)C(Cc2cccc3c2ccn3CC2CCc3ccccc3N2)S1` (stereo not shown) [Example 148, 5-{1-[(1,2,3,4-tetrahydroquinol-2-yl)methyl]indol-4-yl}methyl-2,4-thiazolidinedione] was run?
Answer: The activity at 50 µg/mL was 153%.

Question: Which activity at 50 µg/mL does the source give for `O=C1NC(=O)C(Cc2cccc3[nH]ccc23)S1` (stereo not shown) [Example 150, 5-(indol-4-yl)methyl-2,4-thiazolidinedione] here?
Answer: The activity at 50 µg/mL was 191%.

Question: `CCCCCCn1ccc2c(C=C3SC(=O)NC3=O)cccc21` [Example 155, 5-(1-hexylindol-4-yl)methylene-2,4-thiazolidinedione] was tested. Which activity at 50 µg/mL did it give?
Answer: Its activity at 50 µg/mL is 233%.

Question: With `CCC(CC)Cn1ccc2c(C=C3SC(=O)NC3=O)cccc21` [Example 158, 5-[1-(2-ethylbutyl)indol-4-yl]methylene-2,4-thiazolidinedione] as the compound, how does the activity at 50 µg/mL read?
Answer: The activity at 50 µg/mL was 221%.

Question: Which activity at 50 µg/mL does the source give for `CC(C)=CCCn1ccc2c(CC3SC(=O)NC3=O)cccc21` (stereo not shown) [Example 165, 5-[1-(4-methyl-3-pentenyl)indol-4-yl]methyl-2,4-thiazolidinedione] here?
Answer: Its activity at 50 µg/mL is 285%.

Question: For `CC#CCn1ccc2c(CC3SC(=O)NC3=O)cccc21` (stereo not shown) [Example 168, 5-[1-(2-butynyl)indol-4-yl]methyl-2,4-thiazolidinedione], which activity at 50 µg/mL is on record?
Answer: Its activity at 50 µg/mL is 172%.

Question: How did the activity at 50 µg/mL turn out when `CC(c1ccccc1)n1ccc2c(C=C3SC(=O)NC3=O)cccc21` (stereo not drawn) [Example 173, 5-[1-(α-methylbenzyl)indol-4-yl]methylene-2,4-thiazolidinedione] was run?
Answer: The activity at 50 µg/mL was 153%.

Question: With `CC(c1ccccc1)n1ccc2c(CC3SC(=O)NC3=O)cccc21` (stereo not drawn) [Example 174, 5-[1-(α-methylbenzyl)indol-4-yl]methyl-2,4-thiazolidinedione] as the compound, how does the activity at 50 µg/mL read?
Answer: The activity at 50 µg/mL was 252%.

Question: `O=C1NC(=O)C(Cc2cccc3c2ccn3C(c2ccccc2)c2ccccc2)S1` (stereo not shown) [Example 177, 5-[1-(benzhydryl)indol-4-yl]methyl-2,4-thiazolidinedione] was tested. Which activity at 50 µg/mL did it give?
Answer: The activity at 50 µg/mL was 159%.

Question: How did the activity at 50 µg/mL turn out when `O=C1NC(=O)C(Cc2cccc3c2ccn3C2CCCCC2)S1` (stereo not shown) [Example 180, 5-(1-cyclohexylindol-4-yl)methyl-2,4-thiazolidinedione] was run?
Answer: Its activity at 50 µg/mL is 232%.

Question: How did the activity at 50 µg/mL turn out when `O=C1NC(=O)C(Cc2cccc3c2ccn3CC(=O)c2ccccc2)S1` (stereo not shown) [Example 187, 5-(1-phenacylindol-4-yl)methyl-2,4-thiazolidinedione] was run?
Answer: The activity at 50 µg/mL was 174%.

Question: For `Nc1ccc(Cn2ccc3c(CC4SC(=O)NC4=O)cccc32)cc1` (stereo not shown) [Example 190, 5-[1-(4-aminobenzyl)indol-4-yl]methyl-2,4-thiazolidinedione], which activity at 50 µg/mL is on record?
Answer: Its activity at 50 µg/mL is 164%.

Question: Which activity at 50 µg/mL does the source give for `CC1(C)[C@H]2CC=C(Cn3ccc4c(CC5SC(=O)NC5=O)cccc43)[C@@H]1C2` (stereo partly drawn) [Example 199, 5-[1-(1S, 5S, 2-pinen-10-yl)indol-4-yl]methyl-2,4-thiazolidinedione] here?
Answer: The activity at 50 µg/mL was 206%.

Question: With `C=C(C)[C@@H]1CC=C(Cn2ccc3c(CC4SC(=O)NC4=O)cccc32)CC1` (stereo partly drawn) [Example 208, 5-[1-(4S-p-mentha-1,8-dien-7-yl)indol-4-yl]methyl-2,4-thiazolidinedione] as the compound, how does the activity at 50 µg/mL read?
Answer: Its activity at 50 µg/mL is 189%.

Question: For `O=C1NC(=O)C(Cc2cccc3c2ccn3Cc2cc(C(F)(F)F)cc(C(F)(F)F)c2)S1` (stereo not shown) [Example 214, 5-{1-[3,5-bis(trifluoromethyl)benzyl]indol-4-yl}methyl-2,4-thiazolidinedione], which activity at 50 µg/mL is on record?
Answer: The activity at 50 µg/mL was 185%.

Question: For `O=C1NC(=O)C(Cc2cn(Cc3cc(F)ccc3F)c3ccccc23)S1` (stereo not shown) [Example 250, 5-[1-(2,5-difluorobenzyl)indol-3-yl]methyl-2,4-thiazolidinedione], which activity at 50 µg/mL is on record?
Answer: Its activity at 50 µg/mL is 209%.

Question: `O=C1NC(=O)C(Cc2cn(Cc3ccc(Cl)cc3)c3ccccc23)S1` (stereo not shown) [Example 253, 5-[1-(4-chlorobenzyl)indol-3-yl]methyl-2,4-thiazolidinedione] was tested. Which activity at 50 µg/mL did it give?
Answer: Its activity at 50 µg/mL is 203%.

Question: With `Nc1ccc(Cn2cc(CC3SC(=O)NC3=O)c3ccccc32)cc1` (stereo not shown) [Example 256, 5-[1-(4-aminobenzyl)indol-3-yl]methyl-2,4-thiazolidinedione] as the compound, how does the activity at 50 µg/mL read?
Answer: Its activity at 50 µg/mL is 172%.

Question: Which activity at 50 µg/mL does the source give for `O=C1NC(=O)C(Cc2cn(Cc3ccc(C(F)(F)F)cc3)c3ccccc23)S1` (stereo not shown) [Example 271, 5-{1-[4-(trifluoromethyl)benzyl]indol-3-yl}methyl-2,4-thiazolidinedione] here?
Answer: The activity at 50 µg/mL was 165%.

Question: `O=C1NC(=O)C(Cc2cn(Cc3cccc(F)c3)c3ccccc23)S1` (stereo not shown) [Example 273, 5-[1-(3-fluorobenzyl)indol-3-yl]methyl-2,4-thiazolidinedione] was tested. Which activity at 50 µg/mL did it give?
Answer: The activity at 50 µg/mL was 215%.

Question: `O=C1NC(=O)C(Cc2cn(Cc3cc(F)cc(F)c3)c3ccccc23)S1` (stereo not shown) [Example 275, 5-[1-(3,5-difluorobenzyl)indol-3-yl]methyl-2,4-thiazolidinedione] was tested. Which activity at 50 µg/mL did it give?
Answer: The activity at 50 µg/mL was 185%.

Question: With `Cc1cccc(Cn2cc(CC3SC(=O)NC3=O)c3ccccc32)c1` (stereo not shown) [Example 281, 5-[1-(3-methylbenzyl)indol-3-yl]methyl-2,4-thiazolidinedione] as the compound, how does the activity at 50 µg/mL read?
Answer: The activity at 50 µg/mL was 244%.

Question: `N#Cc1cccc(Cn2cc(CC3SC(=O)NC3=O)c3ccccc32)c1` (stereo not shown) [Example 283, 5-[1-(3-cyanobenzyl)indol-3-yl]methyl-2,4-thiazolidinedione] was tested. Which activity at 50 µg/mL did it give?
Answer: The activity at 50 µg/mL was 232%.

Question: For `N#Cc1ccc(Cn2cc(CC3SC(=O)NC3=O)c3ccccc32)cc1` (stereo not shown) [Example 285, 5-[1-(4-cyanobenzyl)indol-3-yl]methyl-2,4-thiazolidinedione], which activity at 50 µg/mL is on record?
Answer: The activity at 50 µg/mL was 225%.

Question: How did the activity at 50 µg/mL turn out when `O=C1NC(=O)C(Cc2cn(Cc3ccccc3)c3ccccc23)S1` (stereo not shown) [Example 288, 5-(1-benzylindol-3-yl)methyl-2,4-thiazolidinedione] was run?
Answer: The activity at 50 µg/mL was 209%.

Question: For `O=C1NC(=O)C(Cc2ccc3c(ccn3CCc3ccccc3)c2)S1` (stereo not shown) [Example 305, 5-(1-phenethylindol-5-yl)methyl-2,4-thiazolidinedione], which activity at 50 µg/mL is on record?
Answer: Its activity at 50 µg/mL is 215%.

Question: `O=C1NC(=O)C(Cc2cc3ccccc3n2Cc2ccccc2)S1` (stereo not shown) [Example 312, 5-(1-benzylindol-2-yl)methyl-2,4-thiazolidinedione] was tested. Which activity at 50 µg/mL did it give?
Answer: The activity at 50 µg/mL was 164%.

Question: `O=C1NC(=O)C(Cc2cn(Cc3ccc(O)cc3)c3ccccc23)S1` (stereo not shown) [Example 317, 5-[1-(4-hydroxybenzyl)indol-3-yl]methyl-2,4-thiazolidinedione] was tested. Which activity at 50 µg/mL did it give?
Answer: The activity at 50 µg/mL was 169%.
